In patent publication US20230085307A1, “PYRIDAZINONE COMPOUND AND HERBICIDE” (NISSAN CHEMICAL CORPORATION, priority 2019, published 2023):

Assays:
velvetleaf [1] = assay: Test Example 4: herbicidal effect by soil treatment (Table 19, symbol M); format: in vivo, velvetleaf (Abutilon theophrasti); conditions: amount of applied herbicide 320 g/ha
Procedure, shortened: (§1)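 Applied as a water-diluted emulsion, the compound was sprayed onto soil covering newly sown seeds. Evaluation came three weeks after application, in a greenhouse held at 25° C. to 30° C.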

windgrass [2] = assay: Test Example 5: herbicidal effect by foliage application, plastic box (Table 20, symbol L); format: in vivo, windgrass (Apera spica-venti); conditions: foliage application, 320 g/ha, three weeks after application
Procedure, shortened: (§2)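 Sow seeds spot-wise in sterilized diluvial soil; cover with ~1.5 cm soil. Grow 14 days in greenhouse, 25° C. to 30° C. Spray foliage with emulsion diluted to predetermined amount. Rate effect after 3 weeks.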

false cleavers [3] = assay: Test Example 4: herbicidal effect by soil treatment (Table 19, symbol Q); format: in vivo, false cleavers (Galium spurium); conditions: amount of applied herbicide 320 g/ha
Procedure, shortened: as §1

green foxtail [4] = assay: Test Example 5: herbicidal effect by foliage application, plastic box (Table 20, symbol G); format: in vivo, green foxtail (Setaria viridis); conditions: foliage application, 320 g/ha, three weeks after application
Procedure, shortened: as §2

lambsquarters [5] = assay: Test Example 5: herbicidal effect by foliage application, plastic box (Table 20, symbol O); format: in vivo, lambsquarters (Chenopodium album); conditions: foliage application, 320 g/ha, three weeks after application
Procedure, shortened: as §2

velvetleaf [6] = assay: Test Example 5: herbicidal effect by foliage application, plastic box (Table 20, symbol M); format: in vivo, velvetleaf (Abutilon theophrasti); conditions: foliage application, 320 g/ha, three weeks after application
Procedure, shortened: as §2

wild oat [7] = assay: Test Example 5: herbicidal effect by foliage application, plastic box (Table 20, symbol I); format: in vivo, wild oat (Avena fatua); conditions: foliage application, 320 g/ha, three weeks after application
Procedure, shortened: as §2

Chinese sprangletop = assay: Test Example 3: herbicidal effect by foliage application, Wagner pot (Table 18, symbol D); format: in vivo, chinese sprangletop (Leptochloa chinensis); conditions: 320 g/ha
Procedure, shortened: (§3)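 Plants were sown in alluvial soil held under 0.1–0.5 cm standing water and grown 14 days in a greenhouse at 25–30 °C. An emulsifiable formulation, water-diluted to the set dose, was then sprayed onto the foliage, and effects were scored three weeks later using previously defined criteria.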

blackgrass [8] = assay: Test Example 4: herbicidal effect by soil treatment (Table 19, symbol J); format: in vivo, blackgrass (Alopecurus myosuroides); conditions: amount of applied herbicide 320 g/ha
Procedure, shortened: as §1

green foxtail [9] = assay: Test Example 4: herbicidal effect by soil treatment (Table 19, symbol G); format: in vivo, green foxtail (Setaria viridis); conditions: amount of applied herbicide 320 g/ha
Procedure, shortened: as §1

blackgrass [10] = assay: Test Example 5: herbicidal effect by foliage application, plastic box (Table 20, symbol J); format: in vivo, blackgrass (Alopecurus myosuroides); conditions: foliage application, 320 g/ha, three weeks after application
Procedure, shortened: as §2

persian speedwell [11] = assay: Test Example 4: herbicidal effect by soil treatment (Table 19, symbol R); format: in vivo, Persian speedwell (Veronica persica); conditions: amount of applied herbicide 320 g/ha
Procedure, shortened: as §1

Italian ryegrass [12] = assay: Test Example 4: herbicidal effect by soil treatment (Table 19, symbol K); format: in vivo, Italian ryegrass (Lolium multiflorum); conditions: amount of applied herbicide 320 g/ha
Procedure, shortened: as §1

Italian ryegrass [13] = assay: Test Example 5: herbicidal effect by foliage application, plastic box (Table 20, symbol K); format: in vivo, Italian ryegrass (Lolium multiflorum); conditions: foliage application, 320 g/ha, three weeks after application
Procedure, shortened: as §2

barnyard grass [14] = assay: Test Example 3: herbicidal effect by foliage application, Wagner pot (Table 18, symbol H); format: in vivo, barnyard grass (Echinochloa crus-galli); conditions: 320 g/ha
Procedure, shortened: as §3

chickweed [15] = assay: Test Example 5: herbicidal effect by foliage application, plastic box (Table 20, symbol P); format: in vivo, common chickweed (Stellaria media); conditions: foliage application, 320 g/ha, three weeks after application
Procedure, shortened: as §2

chickweed [16] = assay: Test Example 4: herbicidal effect by soil treatment (Table 19, symbol P); format: in vivo, common chickweed (Stellaria media); conditions: amount of applied herbicide 320 g/ha
Procedure, shortened: as §1

persian speedwell [17] = assay: Test Example 5: herbicidal effect by foliage application, plastic box (Table 20, symbol R); format: in vivo, Persian speedwell (Veronica persica); conditions: foliage application, 320 g/ha, three weeks after application
Procedure, shortened: as §2

wild oat [18] = assay: Test Example 4: herbicidal effect by soil treatment (Table 19, symbol I); format: in vivo, wild oat (Avena fatua); conditions: amount of applied herbicide 320 g/ha
Procedure, shortened: as §1

barnyard grass [19] = assay: Test Example 5: herbicidal effect by foliage application, plastic box (Table 20, symbol H); format: in vivo, barnyard grass (Echinochloa crus-galli); conditions: foliage application, 320 g/ha, three weeks after application
Procedure, shortened: as §2

barnyard grass [20] = assay: Test Example 4: herbicidal effect by soil treatment (Table 19, symbol H); format: in vivo, barnyard grass (Echinochloa crus-galli); conditions: amount of applied herbicide 320 g/ha
Procedure, shortened: as §1

southern crabgrass [21] = assay: Test Example 5: herbicidal effect by foliage application, plastic box (Table 20, symbol F); format: in vivo, southern crabgrass (Digitaria ciliaris); conditions: foliage application, 320 g/ha, three weeks after application
Procedure, shortened: as §2

false cleavers [22] = assay: Test Example 5: herbicidal effect by foliage application, plastic box (Table 20, symbol Q); format: in vivo, false cleavers (Galium spurium); conditions: foliage application, 320 g/ha, three weeks after application
Procedure, shortened: as §2

redroot pigweed [23] = assay: Test Example 4: herbicidal effect by soil treatment (Table 19, symbol N); format: in vivo, redroot pigweed (Amaranthus retroflexus); conditions: amount of applied herbicide 320 g/ha
Procedure, shortened: as §1

lambsquarters [24] = assay: Test Example 4: herbicidal effect by soil treatment (Table 19, symbol O); format: in vivo, lambsquarters (Chenopodium album); conditions: amount of applied herbicide 320 g/ha
Procedure, shortened: as §1

redroot pigweed [25] = assay: Test Example 5: herbicidal effect by foliage application, plastic box (Table 20, symbol N); format: in vivo, redroot pigweed (Amaranthus retroflexus); conditions: foliage application, 320 g/ha, three weeks after application
Procedure, shortened: as §2

southern crabgrass [26] = assay: Test Example 4: herbicidal effect by soil treatment (Table 19, symbol F); format: in vivo, southern crabgrass (Digitaria ciliaris); conditions: amount of applied herbicide 320 g/ha
Procedure, shortened: as §1

rice flat sedge = assay: Test Example 3: herbicidal effect by foliage application, Wagner pot (Table 18, symbol E); format: in vivo, rice flat sedge (Cyperus iria); conditions: 320 g/ha
Procedure, shortened: as §3

windgrass [27] = assay: Test Example 4: herbicidal effect by soil treatment (Table 19, symbol L); format: in vivo, windgrass (Apera spica-venti); conditions: amount of applied herbicide 320 g/ha
Procedure, shortened: as §1

Cc1nn(C)c(=O)c(-c2c(-c3ccccc3C(F)(F)F)sc3ccccc23)c1O [1-007]
herbicidal effect rating, M: velvetleaf (velvetleaf [1]): 0 (Herbicidal rate of 5% or less (almost no effect)) | herbicidal effect grade, L: windgrass (windgrass [2]): 5 (Herbicidal rate of 90% or more (almost completely withered)) | herbicidal effect rating, Q: false cleavers (false cleavers [3]): 0 (Herbicidal rate of 5% or less (almost no effect)) | herbicidal effect grade, G: green foxtail (green foxtail [4]): 5 (Herbicidal rate of 90% or more (almost completely withered)) | herbicidal effect grade, O: lambsquarters (lambsquarters [5]): 5 (Herbicidal rate of 90% or more (almost completely withered)) | herbicidal effect grade, M: velvetleaf (velvetleaf [6]): 5 (Herbicidal rate of 90% or more (almost completely withered)) | herbicidal effect grade, I: wild oat (wild oat [7]): 3 (Herbicidal rate of 40% or more and less than 70%) | herbicidal effect on D (Chinese sprangletop), rating 0-5 (Chinese sprangletop): 5 (Herbicidal rate of 90% or more (almost completely withered)) | herbicidal effect rating, J: blackgrass (blackgrass [8]): 0 (Herbicidal rate of 5% or less (almost no effect)) | herbicidal effect rating, G: green foxtail (green foxtail [9]): 0 (Herbicidal rate of 5% or less (almost no effect)) | herbicidal effect grade, J: blackgrass (blackgrass [10]): 0 (Herbicidal rate of 5% or less (almost no effect)) | herbicidal effect rating, R: persian speedwell (persian speedwell [11]): 0 (Herbicidal rate of 5% or less (almost no effect)) | herbicidal effect rating, K: Italian ryegrass (Italian ryegrass [12]): 0 (Herbicidal rate of 5% or less (almost no effect)) | herbicidal effect grade, K: Italian ryegrass (Italian ryegrass [13]): 3 (Herbicidal rate of 40% or more and less than 70%) | herbicidal effect on H (barnyard grass), rating 0-5 (barnyard grass [14]): 5 (Herbicidal rate of 90% or more (almost completely withered)) | herbicidal effect grade, P: chickweed (chickweed [15]): 5 (Herbicidal rate of 90% or more (almost completely withered)) | herbicidal effect rating, P: chickweed (chickweed [16]): 3 (Herbicidal rate of 40% or more and less than 70%) | herbicidal effect grade, R: persian speedwell (persian speedwell [17]): 5 (Herbicidal rate of 90% or more (almost completely withered)) | herbicidal effect rating, I: wild oat (wild oat [18]): 3 (Herbicidal rate of 40% or more and less than 70%) | herbicidal effect grade, H: barnyard grass (barnyard grass [19]): 3 (Herbicidal rate of 40% or more and less than 70%) | herbicidal effect rating, H: barnyard grass (barnyard grass [20]): 0 (Herbicidal rate of 5% or less (almost no effect)) | herbicidal effect grade, F: southern crabgrass (southern crabgrass [21]): 3 (Herbicidal rate of 40% or more and less than 70%) | herbicidal effect grade, Q: false cleavers (false cleavers [22]): 5 (Herbicidal rate of 90% or more (almost completely withered)) | herbicidal effect rating, N: redroot pigweed (redroot pigweed [23]): 0 (Herbicidal rate of 5% or less (almost no effect)) | herbicidal effect rating, O: lambsquarters (lambsquarters [24]): 0 (Herbicidal rate of 5% or less (almost no effect)) | herbicidal effect grade, N: redroot pigweed (redroot pigweed [25]): 5 (Herbicidal rate of 90% or more (almost completely withered)) | herbicidal effect rating, F: southern crabgrass (southern crabgrass [26]): 0 (Herbicidal rate of 5% or less (almost no effect)) | herbicidal effect on E (rice flat sedge), rating 0-5 (rice flat sedge): 4 (Herbicidal rate of 70% or more and less than 90%)

COc1ccc2c(-c3c(O)c(C)nn(C)c3=O)c(-c3ccccc3)sc2c1 [3-061]
M: velvetleaf, herbicidal effect grade (velvetleaf [1]): 0 (Herbicidal rate of 5% or less (almost no effect)) | L: windgrass, herbicidal effect grade (windgrass [2]): 3 (Herbicidal rate of 40% or more and less than 70%) | Q: false cleavers, herbicidal effect grade (false cleavers [3]): 2 (Herbicidal rate of 20% or more and less than 40%) | G: green foxtail, herbicidal effect grade (green foxtail [4]): 0 (Herbicidal rate of 5% or less (almost no effect)) | O: lambsquarters, herbicidal effect grade (lambsquarters [5]): 4 (Herbicidal rate of 70% or more and less than 90%) | M: velvetleaf, herbicidal effect grade (velvetleaf [6]): 5 (Herbicidal rate of 90% or more (almost completely withered)) | L: windgrass, herbicidal effect grade (windgrass [27]): 0 (Herbicidal rate of 5% or less (almost no effect)) | I: wild oat, herbicidal effect grade (wild oat [7]): 4 (Herbicidal rate of 70% or more and less than 90%) | herbicidal effect on Chinese sprangletop (D) (Chinese sprangletop): 3 (Herbicidal rate of 40% or more and less than 70%) | G: green foxtail, herbicidal effect grade (green foxtail [9]): 4 (Herbicidal rate of 70% or more and less than 90%) | J: blackgrass, herbicidal effect grade (blackgrass [10]): 3 (Herbicidal rate of 40% or more and less than 70%) | R: persian speedwell, herbicidal effect grade (persian speedwell [11]): 4 (Herbicidal rate of 70% or more and less than 90%) | K: Italian ryegrass, herbicidal effect grade (Italian ryegrass [12]): 0 (Herbicidal rate of 5% or less (almost no effect)) | K: Italian ryegrass, herbicidal effect grade (Italian ryegrass [13]): 3 (Herbicidal rate of 40% or more and less than 70%) | herbicidal effect on barnyard grass (H) (barnyard grass [14]): 2 (Herbicidal rate of 20% or more and less than 40%) | P: chickweed, herbicidal effect grade (chickweed [15]): 5 (Herbicidal rate of 90% or more (almost completely withered)) | P: chickweed, herbicidal effect grade (chickweed [16]): 3 (Herbicidal rate of 40% or more and less than 70%) | R: persian speedwell, herbicidal effect grade (persian speedwell [17]): 5 (Herbicidal rate of 90% or more (almost completely withered)) | I: wild oat, herbicidal effect grade (wild oat [18]): 2 (Herbicidal rate of 20% or more and less than 40%) | H: barnyard grass, herbicidal effect grade (barnyard grass [19]): 0 (Herbicidal rate of 5% or less (almost no effect)) | H: barnyard grass, herbicidal effect grade (barnyard grass [20]): 3 (Herbicidal rate of 40% or more and less than 70%) | F: southern crabgrass, herbicidal effect grade (southern crabgrass [21]): 0 (Herbicidal rate of 5% or less (almost no effect)) | Q: false cleavers, herbicidal effect grade (false cleavers [22]): 4 (Herbicidal rate of 70% or more and less than 90%) | N: redroot pigweed, herbicidal effect grade (redroot pigweed [23]): 0 (Herbicidal rate of 5% or less (almost no effect)) | O: lambsquarters, herbicidal effect grade (lambsquarters [24]): 2 (Herbicidal rate of 20% or more and less than 40%) | N: redroot pigweed, herbicidal effect grade (redroot pigweed [25]): 4 (Herbicidal rate of 70% or more and less than 90%) | F: southern crabgrass, herbicidal effect grade (southern crabgrass [26]): 0 (Herbicidal rate of 5% or less (almost no effect)) | herbicidal effect on rice flat sedge (E) (rice flat sedge): 5 (Herbicidal rate of 90% or more (almost completely withered))
